Test results from US6833374B2, “Dihydropyrazolo[3,4-d]thieno[2,3-B]pyridinone inhibitors of B7-1” (Wyeth, priority 2002, dated 2004).
pIC50: −log10 of the molar value.

Molecular target: T1, B7-1/CD28 (Homo sapiens, UniProt P33681)
T1 sequence (P33681 35-242 limits assumed): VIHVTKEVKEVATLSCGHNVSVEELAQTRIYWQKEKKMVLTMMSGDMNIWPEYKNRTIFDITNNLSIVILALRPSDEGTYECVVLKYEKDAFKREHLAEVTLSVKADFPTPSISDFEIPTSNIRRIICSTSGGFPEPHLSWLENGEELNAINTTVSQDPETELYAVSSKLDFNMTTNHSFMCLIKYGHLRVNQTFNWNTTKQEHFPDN
Test: CD28/B7-1 ELISA (B7-1/CD28 binding inhibition)
Settings: CD28-Fc coated wells, B7-1-Fc-biotin detection complex
Description: Evaluation of B7-1/CD28 Binding Inhibition for Test Compounds
Wells are coated with 300 ng CD28-Fc in carbonate buffer (pH 9.4) overnight at 4° C., blocked with 1% bovine serum albumin in tris-buffered saline (TBS) for 1 h at 22° C. and washed 3 times in TBS prior to assay. The detection complex is formed as follows: B7-1-Fc-biotin, prepared using NHS-LC-biotin (Pierce #21335) according to the manufacturers instructions (4.1 moles biotin/mole Fc), is added at 0.8 ug/ml to streptavidin-alkaline phosphatase (Caltag Sa1008 at 1:1000 in TBS. Gradient dilutions of test compound in dimethylsulfoxide (1% final) are added to this complex and incubated 30 min. at 22° C. Detection complex (+/− inhibitors) is then added to the CD28 coated wells for 25 min. at 22° C., washed 5 times with TBS, developed with the calorimetric substrate pNPP (Pierce #34045) in diethanolamine/MgCl2 buffer (pH 9.5) and read at 405 nm. The inhibition constant (IC50) is calculated by subtracting the background binding and comparing to uninhibited (DMSO alone) controls. The inhibition constant represents the concentration of test compound required to achieve 50% inhibition.

pIC50 | Structure (SMILES)
6.22 | O=c1c2c(-c3cccc(C(F)(F)F)c3)nc3sccc3c2[nH]n1-c1ccc(F)cc1 [Example 3, 2-(4-Fluorophenyl)-4-[3-(trifluoromethyl)phenyl]1,2-dihydro-3H-pyrazolo[3,4-d]thieno[2,3-b]pyridin-3-one]
6.30 | O=c1c2c(-c3cccc(C(F)(F)F)c3)nc3sccc3c2[nH]n1-c1ccc(Cl)cc1 [Example 4, 2-(4-chlorophenyl)-4-[3-(trifluoromethyl)phenyl]-1,2-dihydro-3H-pyrazolo-[3,4-d]thieno[2,3-b]pyridin-3-one]
